Results: patent publication EP1585727B1, “INDOLES USEFUL IN THE TREATMENT OF ANDROGEN-RECEPTOR RELATED DISEASES” (priority 2002, dated 2004)

Tests used:
human androgen receptor [1] = target: T1, human androgen receptor (Homo sapiens, UniProt P10275); experiment: cell-based
T1 construct: expressed in transfected cells; host or cells: Chinese hamster ovary (CHO) cells, cell line CHO-AR-pMMTV-LUC 1G12-A5-CA
T1 sequence (P10275 1-920): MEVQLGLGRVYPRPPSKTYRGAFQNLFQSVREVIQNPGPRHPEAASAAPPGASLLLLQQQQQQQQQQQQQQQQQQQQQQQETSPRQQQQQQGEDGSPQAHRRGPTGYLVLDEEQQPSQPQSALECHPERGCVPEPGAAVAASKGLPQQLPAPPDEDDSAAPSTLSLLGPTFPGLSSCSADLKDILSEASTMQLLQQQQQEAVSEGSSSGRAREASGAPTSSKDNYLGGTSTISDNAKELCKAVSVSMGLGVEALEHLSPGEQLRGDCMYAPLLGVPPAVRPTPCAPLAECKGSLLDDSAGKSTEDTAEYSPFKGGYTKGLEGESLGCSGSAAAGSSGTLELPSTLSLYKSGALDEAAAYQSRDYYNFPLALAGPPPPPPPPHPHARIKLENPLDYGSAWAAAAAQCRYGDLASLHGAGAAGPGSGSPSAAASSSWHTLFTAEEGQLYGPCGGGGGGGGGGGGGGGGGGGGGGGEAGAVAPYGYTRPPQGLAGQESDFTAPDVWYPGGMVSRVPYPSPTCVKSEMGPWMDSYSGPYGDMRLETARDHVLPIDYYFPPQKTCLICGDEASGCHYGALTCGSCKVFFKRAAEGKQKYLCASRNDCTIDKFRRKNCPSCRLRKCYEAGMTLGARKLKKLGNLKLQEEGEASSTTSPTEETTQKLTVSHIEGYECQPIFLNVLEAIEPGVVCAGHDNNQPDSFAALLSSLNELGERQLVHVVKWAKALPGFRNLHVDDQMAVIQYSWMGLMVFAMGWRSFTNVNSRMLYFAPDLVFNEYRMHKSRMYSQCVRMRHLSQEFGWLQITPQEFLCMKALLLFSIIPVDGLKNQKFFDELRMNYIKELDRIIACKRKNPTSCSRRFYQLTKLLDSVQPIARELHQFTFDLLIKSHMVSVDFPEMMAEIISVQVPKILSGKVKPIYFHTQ
Procedure: (§1) Compounds were tested for their Androgen Receptor activity in a transactivation assay and in a binding assay.
(§2) The (anti-)androgenic activity of test compounds (EC50 and intrinsic activity) was determined in an in vitro bioassay of Chinese hamster ovary (CHO) cells stably transfected with the human androgen receptor expression plasmid and a reporter plasmid in which the MMTV-promoter is linked to the luciferase reporter gene. The cell-line CHO-AR-pMMTV-LUC 1G12-AS-CA is described in Schoonen et al. (2000), Journal of Steroid Biochemistry and Molecular Biology 74(4):213-222. The antiandrogenic activity of a test compound was determined by the inhibition of the transactivation via the androgen receptor of the enzyme luciferase in the presence of 1 nM DHT (5 α-dihydrotestosterone, 17β-hydroxy-5α-androstan-3-one). Intrinsic activity of antiandrogenic activity was determined in the presence of the reference antiandrogen 2-Hydroxy-2-methyl-N-(4-nitro-3-trifluoromethyl-phenyl)-propionamide (Hydroxyflutamide), and set at 100%. For androgenic activity, maximal intrinsic activity in the presence of 100 nM DHT was set at 100%. Table 4 Androgen receptor activity

human androgen receptor [2] = target: T1, human androgen receptor; experiment: Androgen receptor transactivation assay, antiandrogenic activity: inhibition of transactivation in the presence of 1 nM DHT (CHO-AR-pMMTV-LUC cells; Table 4); assay type: cell-based; conditions: for Emax: intrinsic activity relative to reference antiandrogen Hydroxyflutamide (set at 100%); for EC50: antiandrogenic activity, read-out: ant EC50
Procedure: as §1, §2

[3] = system: cytoplasmic human androgen receptor; experiment: Competitive binding to cytoplasmic human androgen receptor from recombinant CHO cells (relative binding affinity); conditions: relative to DHT; cytosol of CHO-AR-pMMTV-LUC 1G12-A5-CA cells
Text: Determination of competitive binding to cytoplasmic human androgen receptor from recombinant CHO cells is used to estimate the relative binding affinity (RBA) of a test compound for androgen receptors present in the cytosol prepared of the recombinant CHO cell-line, CHO-AR-pMMTV-LUC 1G12-A5-CA.

human androgen receptor [4] = target: T1, human androgen receptor; experiment: Androgen receptor transactivation assay, androgenic activity in the presence of 0.1 µmol/l onapristone (CHO-AR-pMMTV-LUC cells; Table 5); assay type: cell-based; conditions: for ago efficacy: maximal intrinsic activity in the presence of 100 nM DHT set at 1.00; for ago potency: potency expressed as percentage of DHT activity
Procedure: The androgenic activity (EC50, potency, and efficacy) of the compounds in Table 5 was determined in an in vitro bioassay of Chinese hamster ovary (CHO) cells stably transfected with the human androgen receptor expression plasmid and a reporter plasmid in which the MMTV promotor is linked to the luciferase reporter gene. The cell line CHO-AR-pMMTV-LUC 1G12-A5-CA is described in Schoonen et al. (J. Steroid Biochem. Molec. Biol. […]; 74: 213-222). The androgen receptor activity of compounds was determined in the presence of 0.1 µmol/l onapristone. The maximal efficacy in the presence of 100 nmol/l DHT was set as 100%. The potencies are expressed as percentage of DHT activity. Table 5 Androgen receptor activity

[5] = in the presence of 1 nM DHT, read-out: ant efficacy
[6] = androgenic activity, CHO-AR-pMMTV-LUC cells, read-out: ago EC50

Compound | Emax (human androgen receptor [2]; [5]) [%] | ago efficacy (human androgen receptor [4]) | ago potency (human androgen receptor [4]) | other results
O=[N+]([O-])c1ccccc1Sc1cn(Cc2cc(F)cc(F)c2)c2cccc(F)c12 [Compound 51] | < 20 | – | – | EC50 (human androgen receptor [1]): 5 to 100 nM
O=[N+]([O-])c1ccccc1Sc1cn(Cc2cc(F)cc(F)c2)c2ccccc12 [Compound 52] | < 20 | – | – | EC50 (human androgen receptor [1]): < 5 nM
COc1ccc2c(Sc3ccccc3C(N)=O)cn(Cc3cc(F)cc(F)c3)c2c1 [Compound 18, 2-[1-(3,5-Difluoro-benzyl)-6-methoxy-1H-indol-3-ylsulfanyl]-benzamide] | – | – | – | EC50 (human androgen receptor [1]; [6]): > 10000 nM; Emax (human androgen receptor [2]; read-out: ant efficacy, in the presence of 1 nM DHT): 20 to 50%
O=[N+]([O-])c1ccccc1Sc1cn(Cc2cc(F)cc(F)c2)c2ccc(O)cc12 [Compound 56] | < 20 | – | – | Emax (human androgen receptor [1]; maximal intrinsic activity in the presence of 100 nM DHT set at 1.00, read-out: ago efficacy): < 20%; EC50 (human androgen receptor [2]; in the presence of 1 nM DHT): > 10000 nM
COc1ccc2c(Sc3ccccc3[N+](=O)[O-])cn(Cc3ccccc3)c2c1 [Compound 92] | < 20 | – | – | relative binding affinity (RBA) [3]: > 1%
COc1ccc2c(Sc3ccccc3OC)cn(Cc3cc(F)cc(F)c3)c2c1 [Compound 21] | < 20 | – | – | EC50 (human androgen receptor [1]; [6]): 5 to 100 nM; EC50 (human androgen receptor [2]; in the presence of 1 nM DHT): > 10000 nM
O=[N+]([O-])c1ccccc1Sc1cn(Cc2cc(F)cc(F)c2)c2cc(NS(=O)(=O)c3ccsc3)ccc12 [Compound 107, Thiophene-3-sulfonic acid [1-(3,5-difluoro-benzyl)-3-(2-nitro-phenylsulfanyl)-1H-indol-6-yl]-amide] | – | ++ (≥0.80) | + (between 1% and 5%) | –
N#Cc1ccc2c(Sc3ccccc3[N+](=O)[O-])cn(Cc3cncnc3)c2c1 [Compound 123, 3-(2-Nitro-phenylsulfanyl)-1-pyrimidin-5-ylmethyl-1H-indole-6-carbonitrile] | – | ++ (≥0.80) | ++ (>5%) | –
O=C(CF)Nc1ccc2c(Sc3ccccc3[N+](=O)[O-])cn(Cc3cccnc3)c2c1 [Compound 104, 2-Fluoro-N-[3-(2-nitro-phenylsulfanyl)-1-pyridin-3-ylmethyl-1H-indol-6-yl]-acetamide] | – | - (<0.20) | + (between 1% and 5%) | –
CCC(=O)Nc1ccc2c(Sc3ccccc3[N+](=O)[O-])cn(Cc3ccccn3)c2c1 [Compound 102, N-[3-(2-Nitro-phenylsulfanyl)-1-pyridin-2-ylmethyl-1H-indol-6-yl]-propionamide] | – | + (between 0.50 and 0.80) | + (between 1% and 5%) | –
NC(=O)c1ccc2c(Sc3ccccc3[N+](=O)[O-])cn(Cc3ccccn3)c2c1 [Compound 111, 3-(2-Nitro-phenylsulfanyl)-1-pyridin-2-ylmethyl-1H-indole-6-carboxylic acid amide] | – | ± (between 0.20 and 0.50) | ± (between 0.1 % and 1%) | –
